System: NL5901, CL2006 and CL4176 worms
Test: Motor function (thrashing, paralysis) in worms expressing human α-synuclein or Aβ in muscles
Assay type: in vivo, C. elegans
Conditions: NL5901, human α-synuclein within muscles
Source text: FIG. 21, panels A-F: AIC106 prevents neuronal loss and proteotoxicity in strains expressing human neurotoxic proteins. Panel A) Dopaminergic neuronal loss in day-5 UA44 worms was quantified by scoring percentage of worms with intact 4-CEP neurons in AIC106 and DMSO-control treatment. [N=3 independent experiments (mean±SD). ***p<0.001, by one-way ANOVA with Tukey's multiple comparisons test]. Motor function in (panel B) day-7 NL5901 and (panel C) day-5 CL2006 worms were quantified by scoring number of thrashes for an individual worm over the period of 30 seconds (dots) in AIC106 and DMSO-control treatment. […] Panel D) Motor function in temperature sensitive (enhanced paralysis at 25° C.) CL4176 worms was determined by scoring percent of worms paralyzed in AIC106 and DMSO-control treatment. […] P-value calculated by Logrank test]. Panel F) Effect of AIC106 on polyQ40 aggregation was determined by scoring number of polyQ40-YFP fluorescent puncta in an individual AM141 worm treated with AIC106 and DMSO-control. […]
FIG. 22, panels A-H: AIC106-induced HLH-30 expression is mediated by the nuclear hormone receptor DAF-12. […] Panel B) Relative fold change in mRNA of hlh-30 compared to DMSO-control was quantified using qRT-PCR in young adult wild-type N2 and daf-12(rh61rh411) worms post-24 hours treatment with AIC106. […]

| Compound | motor function (thrashing rate) |
| --- | --- |
| Cc1cccc(C)c1OCc1cc(C(=O)N2CCC(c3ccncc3)CC2)no1 [DFA, dafadine-A, reference compound] | improved motor function |
| O=c1oc2c3c4c(cc2c2c1CCC2)CCCN4CCC3 [C1, 2,3,6,7,10,11-Hexahydro-1H,5H-cyclopenta(3,4)(1)benzopyrano(6,7,8-ij)quinolizin-12(9H)-one] | improved motor function |

— patent US12673039B2, “Methods of inducing autophagy using coumarin derivatives and related compounds” (Buck Institute for Research on Aging, priority 2019, dated 2026)
